Source: patent US20260274799A1, “HETEROCYCLIC DERIVATIVES, COMPOSITIONS AND USES THEREOF” (DANATLAS PHARMACEUTICALS CO., LTD., priority 2023, published 2026)

Target: T1, PPARγ-LBD (UniProt ID: P37231-2) (Homo sapiens, UniProt P37231)
T1 construct: PPARγ-LBD (UniProt ID: P37231-2) was expressed and purified in insect system; made in house
T1 sequence (P37231 238-503 limits assumed): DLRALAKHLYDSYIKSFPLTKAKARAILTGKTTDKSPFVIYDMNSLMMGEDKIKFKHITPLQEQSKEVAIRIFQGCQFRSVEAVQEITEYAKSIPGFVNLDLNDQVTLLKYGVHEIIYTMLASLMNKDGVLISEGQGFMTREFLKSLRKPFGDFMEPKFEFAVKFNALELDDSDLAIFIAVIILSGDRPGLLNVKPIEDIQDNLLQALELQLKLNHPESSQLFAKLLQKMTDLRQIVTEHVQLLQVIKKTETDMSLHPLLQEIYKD
Test: PPARγ-SMRT recruitment assay (TR-FRET)
Format: biochemical
Conditions: for Emax: 1 h, max value of % Activation, high control 10 uM control compound, low control 1% DMSO, read-out: Top %; for EC50: TR-FRET, SMRT peptide recruitment to PPARγ-LBD, 120 min pre-incubation
Experimental: PPARγ TR-FRET assay was initiated to evaluate potential activatory effect of the compounds of the present disclosure for SMRT recruitment to PPARγ protein. PPARγ-LBD (UniProt ID: P37231-2) was expressed and purified in insect system and stored at −80° C. in aliquots. Biotinylated SMRT peptide was synthesized (Biotin-[…]). 5 μL protein solution mixture consisting of 10 nM PPARγ-LBD and 2 nM Anti-His Eu (Cisbio, 61HISKLA) in assay buffer (25 mM HEPES pH7.4, 25 mM KCl, 1 mM EDTA, 0.01% BSA, 0.01% Tween-20, 1 mM TCEP) was added to 384-well plates containing duplicate 10-point dose response titration of compounds in 5 μL assay buffer (1% f.c. DMSO(v/v)). After 120 min pre-incubation at room temperature, 5 μL peptide solution mixture consisting of 50 nM Biotin-SMRT peptide and 25 nM Streptavidin-XL665 (Cisbio, 610SAXLA) added to plates. Plates were incubated for 60 min. and read in CLARIOstar Plus plate reader with Ex/Em 620 nm/[…]. Average TR-FRET ratio of high control (Wells with 10 uM control compound) was calculated as High Control (HC). Average TR-FRET ratio of low control (Wells with 1% DMSO) was calculated as Low control (LC). For one compound, top % is the max value of % Activation.
EC50 values were determined by fitting the data to the standard 4 parameters with Hill Slope using GraphPad Prism software. […] ND: No Determine.

Emax [%]	EC50 [µM]	Structure (SMILES)
293	< 0.1	Cc1cnccc1C#Cc1c(F)cc2[nH]c(-c3cc(C#N)ccc3S(C)(=O)=O)cc(=O)c2c1F [Example 28, 3-(5,7-Difluoro-6-((3-methylpyridin-4-yl)ethynyl)-4-oxo-1,4-dihydroquinolin-2-yl)-4-(methylsulfonyl)benzonitrile]
200	< 0.1	C[C@@H](O)C#Cc1c(F)cc2[nH]c(-c3cc(C#N)ccc3S(C)(=O)=O)cc(=O)c2c1F [Example 4, (R)-3-(5,7-Difluoro-6-(3-hydroxybut-1-yn-1-yl)-4-oxo-1,4-dihydroquinolin-2-yl)-4-(methylsulfonyl)benzonitrile]
322	< 0.1	CS(=O)(=O)c1ccc(C#N)cc1-c1cc(=O)c2c(F)c(C#Cc3ccccc3OC(F)(F)F)c(F)cc2[nH]1 [Example 36, 3-(5,7-Difluoro-4-oxo-6-((2-(trifluoromethoxy)phenyl)ethynyl)-1,4-dihydroquinolin-2-yl)-4-(methylsulfonyl)benzonitrile]
495	< 0.1	CC(C)(O)C#Cc1c(F)cc2[nH]c(-c3cc(C#N)ccc3S(C)(=O)=O)cc(=O)c2c1F [Example 1, 3-(5,7-Difluoro-6-(3-hydroxy-3-methylbut-1-yn-1-yl)-4-oxo-1,4-dihydroquinolin-2-yl)-4-(methylsulfonyl)benzonitrile]
372	< 0.1	COC(C)(C)C#Cc1c(F)cc2[nH]c(-c3cc(C#N)ccc3S(C)(=O)=O)cc(=O)c2c1F [Example 50, 3-(5,7-Difluoro-6-(3-methoxy-3-methylbut-1-yn-1-yl)-4-oxo-1,4-dihydroquinolin-2-yl)-4-(methylsulfonyl)benzonitrile]
	< 0.1	CC(C)C#Cc1c(F)cc2[nH]c(-c3cc(C#N)ccc3S(C)(=O)=O)cc(=O)c2c1F [Example 21, 3-(5,7-Difluoro-6-(3-methylbut-1-yn-1-yl)-4-oxo-1,4-dihydroquinolin-2-yl)-4-(methylsulfonyl)benzonitrile]
	< 0.1	CS(=O)(=O)c1ccc(C#N)cc1-c1cc(=O)c2c(F)c(OCC3CCC3)c(F)cc2[nH]1 [Example 26, 3-(6-(Cyclobutylmethoxy)-5,7-difluoro-4-oxo-1,4-dihydroquinolin-2-yl)-4-(methylsulfonyl)benzonitrile]
406	< 0.1	CS(=O)(=O)c1ccc(C#N)cc1-c1cc(=O)c2c(F)c(C#Cc3ccccc3OC(F)F)c(F)cc2[nH]1 [Example 37, 3-(6-((2-(Difluoromethoxy)phenyl)ethynyl)-5,7-difluoro-4-oxo-1,4-dihydroquinolin-2-yl)-4-(methylsulfonyl)benzonitrile]
207	< 0.1	CS(=O)(=O)c1ccc(C#N)cc1-c1cc(=O)c2c(F)c(C#CC3(O)COC3)c(F)cc2[nH]1 [Example 7, 3-(5,7-Difluoro-6-((3-hydroxyoxetan-3-yl)ethynyl)-4-oxo-1,4-dihydroquinolin-2-yl)-4-(methylsulfonyl)benzonitrile]
357	< 0.1	Cc1ncccc1C#Cc1c(F)cc2[nH]c(-c3cc(C#N)ccc3S(C)(=O)=O)cc(=O)c2c1F [Example 29, 3-(5,7-Difluoro-6-((2-methylpyridin-3-yl)ethynyl)-4-oxo-1,4-dihydroquinolin-2-yl)-4-(methylsulfonyl)benzonitrile]
	> 1	Cn1nnnc1Sc1ccc(C#N)cc1-c1cc(=O)c2c(F)cc(F)cc2[nH]1 [Example 54, 3-(5,7-Difluoro-4-oxo-1,4-dihydroquinolin-2-yl)-4-((1-methyl-1H-tetrazol-5-yl)thio)benzonitrile]
300	< 0.1	CS(=O)(=O)c1ccc(C#N)cc1-c1cc(=O)c2c(F)c(C#CCO)c(F)cc2[nH]1 [Example 3, 3-(5,7-Difluoro-6-(3-hydroxyprop-1-yn-1-yl)-4-oxo-1,4-dihydroquinolin-2-yl)-4-(methylsulfonyl)benzonitrile]
	< 0.1	Cc1cc(C#Cc2c(F)cc3[nH]c(-c4cc(C#N)ccc4S(C)(=O)=O)cc(=O)c3c2F)ccn1 [Example 27, 3-(5,7-Difluoro-6-((2-methylpyridin-4-yl)ethynyl)-4-oxo-1,4-dihydroquinolin-2-yl)-4-(methylsulfonyl)benzonitrile]
286	< 0.1	CS(=O)(=O)c1ccc(C#N)cc1-c1cc(=O)c2c(F)c(C#Cc3ccccc3C(F)(F)F)c(F)cc2[nH]1 [Example 44, 3-(5,7-Difluoro-4-oxo-6-((2-(trifluoromethyl)phenyl)ethynyl)-1,4-dihydroquinolin-2-yl)-4-(methylsulfonyl)benzonitrile]
187	< 0.1	CS(=O)(=O)c1ccc(C#N)cc1-c1cc(=O)c2c(F)c(C3CC3)c(F)cc2[nH]1 [Example 13, 3-(6-Cyclopropyl-5,7-difluoro-4-oxo-1,4-dihydroquinolin-2-yl)-4-(methylsulfonyl)benzonitrile]
	< 0.1	CS(=O)(=O)c1ccc(C#N)cc1-c1cc(=O)c2c(F)c(C#Cc3ccncc3)c(F)cc2[nH]1 [Example 22, 3-(5,7-Difluoro-4-oxo-6-(pyridin-4-ylethynyl)-1,4-dihydroquinolin-2-yl)-4-(methylsulfonyl)benzonitrile]
290	< 0.1	CS(=O)(=O)c1ccc(C#N)cc1-c1cc(=O)c2c(F)c(C#CC3CCOC3)c(F)cc2[nH]1 (stereo not drawn) [Example 34, 3-(5,7-Difluoro-4-oxo-6-((tetrahydrofuran-3-yl)ethynyl)-1,4-dihydroquinolin-2-yl)-4-(methylsulfonyl)benzonitrile]
197	< 0.1	CS(=O)(=O)c1ccc(C#N)cc1-c1cc(=O)c2c(F)c(C#CC3COC3)c(F)cc2[nH]1 [Example 24, 3-(5,7-Difluoro-6-(oxetan-3-ylethynyl)-4-oxo-1,4-dihydroquinolin-2-yl)-4-(methylsulfonyl)benzonitrile]
	< 0.1	CC(C)(C#Cc1c(F)cc2[nH]c(-c3cc(C#N)ccc3S(C)(=O)=O)cc(=O)c2c1F)S(C)(=O)=O [Example 48, 3-(5,7-Difluoro-6-(3-methyl-3-(methylsulfonyl)but-1-yn-1-yl)-4-oxo-1,4-dihydroquinolin-2-yl)-4-(methylsulfonyl)benzonitrile]
243	< 0.1	Cc1noc(C)c1C#Cc1c(F)cc2[nH]c(-c3cc(C#N)ccc3S(C)(=O)=O)cc(=O)c2c1F [Example 35, 3-(6-((3,5-Dimethylisoxazol-4-yl)ethynyl)-5,7-difluoro-4-oxo-1,4-dihydroquinolin-2-yl)-4-(methylsulfonyl)benzonitrile]
406	< 0.1	Cc1ccc(C#Cc2c(F)cc3[nH]c(-c4cc(C#N)ccc4S(C)(=O)=O)cc(=O)c3c2F)cc1 [Example 39, 3-(5,7-Difluoro-4-oxo-6-(p-tolylethynyl)-1,4-dihydroquinolin-2-yl)-4-(methylsulfonyl)benzonitrile]
359	< 0.1	CS(=O)(=O)c1ccc(C#N)cc1-c1cc(=O)c2c(F)c(C#CC3CC3)c(F)cc2[nH]1 [Example 9, 3-(6-(Cyclopropylethynyl)-5,7-difluoro-4-oxo-1,4-dihydroquinolin-2-yl)-4-(methylsulfonyl)benzonitrile]
283	< 0.1	COc1ccccc1C#Cc1c(F)cc2[nH]c(-c3cc(C#N)ccc3S(C)(=O)=O)cc(=O)c2c1F [Example 30, 3-(5,7-Difluoro-6-((2-methoxyphenyl)ethynyl)-4-oxo-1,4-dihydroquinolin-2-yl)-4-(methylsulfonyl)benzonitrile]
208	< 0.1	CC#Cc1c(F)cc2[nH]c(-c3cc(C#N)ccc3S(C)(=O)=O)cc(=O)c2c1F [Example 19, 3-(5,7-Difluoro-4-oxo-6-(prop-1-yn-1-yl)-1,4-dihydroquinolin-2-yl)-4-(methylsulfonyl)benzonitrile]
	< 0.1	CC(C)(C)C#Cc1c(F)cc2[nH]c(-c3cc(C#N)ccc3S(C)(=O)=O)cc(=O)c2c1F [Example 10, 3-(6-(3,3-Dimethylbut-1-yn-1-yl)-5,7-difluoro-4-oxo-1,4-dihydroquinolin-2-yl)-4-(methylsulfonyl)benzonitrile]
447	< 0.1	CS(=O)(=O)c1ccc(C#N)cc1-c1cc(=O)c2c(F)c(C#Cc3ccccc3F)c(F)cc2[nH]1 [Example 51, 3-(5,7-Difluoro-6-((2-fluorophenyl)ethynyl)-4-oxo-1,4-dihydroquinolin-2-yl)-4-(methylsulfonyl)benzonitrile]
